Experiments:
dog RPTECs [1] = test: Cell Titer Glo cell viability assay; type: cell-based
Experimental: (§1) Frozen RPTECs vials were removed from liquid nitrogen storage and placed in a 37 °C water bath until the contents were completely thawed. The cells were gently resuspended and dispensed into a cell culture flask at a seeding density of ∼7500 cells/cm^2. The flask was placed in a 37 °C, 5% CO2 incubator. Cell cultures were given fresh medium the following morning and then every other day until the cell culture was approximately 90% confluent. When the cell culture was 90% confluent, medium was removed and the cells were rinsed with warmed PBS. Cells were harvested and split into new flasks based on a cell density of 7500 cells/cm^2. Cells were incubated at 37 °C for 3 days, with fresh medium added each day. Cells were harvested and diluted with growth medium to a density of 200,000 cells/mL. 100 μL of cell suspension per well (20,000 cells/well) was added to a clear-bottom 96-well microplate for luminescence assays. The plated cells were incubated in the 37 °C incubator for 3 days.
(§2) Each test compound (PG, GA, 4OMPG and 4OMGA) was initially reconstituted using DMSO at a concentration of 250 mg/mL. Serial dilutions of each compound were performed to reach concentrations of 4000 μM, 2000 μM, 1000 μM, 500 μM, 250 μM, 125 μM, 62.5 μM, 31.3 μM using warmed fresh supplemented medium with 0.4% (v/v) DMSO for all concentration levels. 100 μL of media containing the compound solution was added to the cells. Final concentrations of the compounds were 2000 μM, 1000 μM, 500 μM, 250 μM, 125 μM, 62.5 μM, 31.3 μM, 15.7 μM. […]
(§3) Cell media were removed and cells were washed twice with 200 μL of PBS buffer per well. […] The plate was gently shaken and incubated in the dark for 30 min and luminescence was measured using a PerkinElmer VICTOR X3 plate reader. […] Luminescence was measured using a PerkinElmer VICTOR X3 plate reader.
(§4) For cell-based assays, data was normalized to the negative control. Cell viability and GSH level were expressed as Cell viability or GSH level=Luminescence(each well)/Luminescence(average of DMSO negative control)

human RPTECs [2] = test: Cell Titer Glo cell viability assay; type: cell-based; conditions: RPTEC, 48 h exposure, estimated
Experimental: as §1, §2, §3, §4

[3] = no reference given; cited from earlier work
dog RPTECs [4] = test: GSH-Glo glutathione assay; type: cell-based
Experimental: as §1
(§5) Each test compound (PG, GA, 4OMPG and 4OMGA) was initially reconstituted using DMSO at a concentration of 250 mg/mL. Serial dilutions of each compound were performed to reach concentrations of 4000 μM, 2000 μM, 1000 μM, 500 μM, 250 μM, 125 μM, 62.5 μM, 31.3 μM using warmed fresh supplemented medium with 0.4% (v/v) DMSO for all concentration levels. 100 μL of media containing the compound solution was added to the cells. Final concentrations of the compounds were 2000 μM, 1000 μM, 500 μM, 250 μM, 125 μM, 62.5 μM, 31.3 μM, 15.7 μM. AZ13599185 (tubulysin, 100 or 500 ng/mL) or cisplatin (30 μg/mL) and buthionine sulfoximine (BSO, 200 μM) were used as positive controls for CTG and GSH assays, respectively. 0.2% (v/v) DMSO in medium was used as the control for both assays, corrsponding to the final cocnetration of DMSO in the well. Three replicates for each compound at each concentration were prepared. Six replicates of positive or negative controls were prepared. Cells were incubated at 37 °C for approximately 48 h.
(§6) Cell media were removed and cells were washed twice with 200 μL of PBS buffer per well. CTG and GSH assay reagents were added to the wells and the assays were performed following the protocols of the Promega assay kits. Briefly, to perform the CTG assay, 100 μL of CTG solution was added into each well. The plate was gently shaken and incubated in the dark for 30 min and luminescence was measured using a PerkinElmer VICTOR X3 plate reader. To perform the GSH assay, luciferin-NT substrate and glutathione S-transferase were mixed into the GSH-GLo solution. 100 μL of the mixed solution was added into each well. The plate was gently shaken and incubated in the dark for at least 30 min. 100 μL of Luciferin Detection Reagent was added per well. The plate was gently shaken and incubated in the dark for at least 15 min. Luminescence was measured using a PerkinElmer VICTOR X3 plate reader.
as §4

human RPTECs [5] = test: GSH-Glo glutathione assay; type: cell-based
Experimental: as §1, §5, §6, §4

[6] = ~48 h exposure, normalized to DMSO control

Compound: CCCOC(=O)c1cc(O)c(O)c(O)c1 [PG, propyl gallate]
- EC50 (dog RPTECs [1]; Canis lupus familiaris, RPTEC, dog RPTECs, 48 h exposure, estimated): ~46.5 µM
- Relative difference in sensitivity between human and dog RPTECs (dog RPTECs [1]; human EC50 vs dog EC50, cell viability): ~33 fold
- EC50 (human RPTECs [2]): ~1530 µM
- Log P [3]: 2.13
- GSH levels at high concentrations (dog RPTECs [4]; ~48 h, high concentrations): reduction of GSH levels
- Glutathione (GSH) levels (dog RPTECs [4]; [6]): not in dog cells
- GSH levels at high concentrations (human RPTECs [5]; ~48 h, high concentrations): reduction of GSH levels
- Glutathione (GSH) levels (human RPTECs [5]; [6]): induced
